{"source": "patent US20240010681A1", "about": "“PEPTIDES AND METHODS OF USE” (REALTA LIFE SCIENCES, INC., priority 2020, published 2024)", "key": {"MAC-1/CR3": {"target": "MAC-1/CR3 (Homo sapiens, UniProt P05107+P11215)", "sequence (P05107 23-769, other chains not shown)": "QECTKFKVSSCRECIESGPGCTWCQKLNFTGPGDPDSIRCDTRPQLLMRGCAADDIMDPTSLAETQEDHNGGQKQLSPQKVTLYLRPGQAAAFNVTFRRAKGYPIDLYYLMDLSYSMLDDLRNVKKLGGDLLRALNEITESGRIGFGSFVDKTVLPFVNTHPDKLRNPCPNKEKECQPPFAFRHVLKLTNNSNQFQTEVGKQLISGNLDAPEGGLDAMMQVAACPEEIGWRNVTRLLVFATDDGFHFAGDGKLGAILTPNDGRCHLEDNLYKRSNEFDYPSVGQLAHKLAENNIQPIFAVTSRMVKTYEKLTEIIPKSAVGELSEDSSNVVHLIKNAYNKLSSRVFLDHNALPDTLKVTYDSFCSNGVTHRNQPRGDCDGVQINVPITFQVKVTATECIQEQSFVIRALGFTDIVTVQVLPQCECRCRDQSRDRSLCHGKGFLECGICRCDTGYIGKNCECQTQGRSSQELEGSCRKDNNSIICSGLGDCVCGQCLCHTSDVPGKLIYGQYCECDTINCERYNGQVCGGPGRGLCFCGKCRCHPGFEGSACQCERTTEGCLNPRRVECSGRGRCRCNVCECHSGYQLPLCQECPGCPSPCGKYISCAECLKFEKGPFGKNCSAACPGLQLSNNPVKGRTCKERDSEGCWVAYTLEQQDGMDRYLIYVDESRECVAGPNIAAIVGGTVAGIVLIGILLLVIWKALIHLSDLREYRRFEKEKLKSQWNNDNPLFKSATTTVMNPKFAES", "assay": "ELISA-type plate binding assay, MAC-1", "details": "1% gelatin/PBS buffer", "protocol": "(§1) To address this hypothesis, an ELISA-type binding assay was developed in which neutrophil ligands (LFA-1 and MAC-1/CR3) and […] cell ligands (ICAM-1/CD54 and ICAM-2/CD102) were bound to microtiter plates. Plates were then incubated with increasing amounts of PA-dPEG24 in 1% gelatin/PBS buffer probed with antibody to the peptide and developed."}, "ICAM-1/CD54": {"target": "ICAM-1/CD54 (Homo sapiens, UniProt P05362)", "sequence (P05362 28-532)": "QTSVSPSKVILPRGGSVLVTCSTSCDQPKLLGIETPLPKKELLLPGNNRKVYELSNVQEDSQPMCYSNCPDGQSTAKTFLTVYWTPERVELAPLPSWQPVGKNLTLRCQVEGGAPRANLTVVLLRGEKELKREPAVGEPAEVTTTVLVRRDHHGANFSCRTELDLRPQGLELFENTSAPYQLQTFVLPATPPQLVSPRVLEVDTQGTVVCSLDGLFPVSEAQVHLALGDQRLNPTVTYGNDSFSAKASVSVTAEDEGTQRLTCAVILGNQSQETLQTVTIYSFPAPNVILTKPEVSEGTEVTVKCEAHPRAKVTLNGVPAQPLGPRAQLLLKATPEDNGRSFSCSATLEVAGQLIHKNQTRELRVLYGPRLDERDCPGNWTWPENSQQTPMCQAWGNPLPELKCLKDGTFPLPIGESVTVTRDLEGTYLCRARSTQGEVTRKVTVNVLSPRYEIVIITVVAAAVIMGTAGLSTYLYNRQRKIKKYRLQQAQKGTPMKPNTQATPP", "assay": "ELISA-type plate binding assay, ICAM-1", "protocol": "as §1\nTo ascertain if PA-dPEG24 could bind ICAM-1 and LFA-1 in plasma, these receptors were coated onto microtiter plates and then incubated with human plasma containing increasing amounts of PA-dPEG24, probed with antibody to the peptide and then developed."}, "MPO (myeloperoxidase)": {"target": "MPO (myeloperoxidase) (Homo sapiens, UniProt P05164)", "sequence (P05164 49-745, species assumed)": "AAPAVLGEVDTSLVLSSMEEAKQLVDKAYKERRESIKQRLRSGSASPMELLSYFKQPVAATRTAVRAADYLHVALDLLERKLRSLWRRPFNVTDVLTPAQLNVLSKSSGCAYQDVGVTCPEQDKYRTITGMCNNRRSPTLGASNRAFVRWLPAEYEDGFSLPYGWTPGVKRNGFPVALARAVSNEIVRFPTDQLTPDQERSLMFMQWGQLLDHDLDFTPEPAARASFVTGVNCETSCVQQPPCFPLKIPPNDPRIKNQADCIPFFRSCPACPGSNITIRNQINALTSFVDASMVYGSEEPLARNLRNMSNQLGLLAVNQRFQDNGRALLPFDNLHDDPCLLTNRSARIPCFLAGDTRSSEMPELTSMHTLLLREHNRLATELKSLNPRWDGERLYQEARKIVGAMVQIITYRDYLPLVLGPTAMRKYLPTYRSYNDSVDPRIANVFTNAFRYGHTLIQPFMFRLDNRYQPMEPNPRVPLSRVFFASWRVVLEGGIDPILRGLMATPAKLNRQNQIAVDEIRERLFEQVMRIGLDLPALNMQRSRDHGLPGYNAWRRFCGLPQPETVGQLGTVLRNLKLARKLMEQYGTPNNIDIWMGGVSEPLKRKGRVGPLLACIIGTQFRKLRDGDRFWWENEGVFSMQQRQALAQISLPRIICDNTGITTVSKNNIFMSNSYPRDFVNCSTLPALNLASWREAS", "assay": "ELISA-type plate binding assay, MPO (positive control ligand)", "details": "in human plasma"}, "[1]": {"assay": "Pharmacokinetics, metabolite profiles and excretion of [14C]-PIC1-dPEG24 after single IV dose", "assay_type": "in vivo, rat", "details": "for Adjusted Peak Distribution (ROI %) in Rat Plasma: AUC0-24 hr pooled plasma, integrated together: M89/M160, M1444/M1701/M1573, M1288/M1217, M2244/M2357/M2470, M2768/PIC1-dPEG24; for estimated mean concentration within 0-24 hr in AUC0-24 hr pooled plasma: parent value = PIC1-dPEG24 and M2768 together", "protocol": "[…]. The six rats in Group 3 and Group 4 were further divided into two subgroups for serial blood collections at 10, 30 min and 1, 2, 3, 4, 6, 8, 24, and 48 hr. Blood was pooled by equal volume across animals at each time point, and aliquots (˜200 μL) of pooled blood were removed at each time point for total radioactivity, and the rest of blood samples were centrifuged to obtain plasma. Bile, urine, feces, and cage wash samples were collected up to 72 hr in bile duct cannulated (BDC) rats, and up to 168 hr in intact rats, and terminal blood samples were collected at the end of study (72 hr or 168 hr post-doses). The total radioactivity concentrations in the excreta, blood and plasma were determined by homogenization, combustion and/or liquid scintillation counting (LSC). The metabolite profiles and structure characterization were conducted in pooled plasma, urine, and bile samples using LC-UV/MS as well as radioactive detection. […].\nThe radioactive profiles of rat plasma samples for the low dose group and the high dose group were qualitatively similar."}, "human monocytes": {"test_system": "human monocytes", "assay": "C1q-immune complex binding to C1q receptors on human monocytes", "assay_type": "cell-based", "details": "increasing amounts of peptide", "description": "Human monocytes were purified and allowed to adhere to a microtiter plate. […] Absorbance was read at 450 nm. N=3. Bars indicate standard error of the mean (SEM).\nFreshly purified human monocytes were allowed to adhere to a 96 well tissue culture plates and nonadherent lymphocytes were removed. […] Unbound immune complexes were washed off and an anti-rabbit HRP antibody was used to detect bound immune complexes, followed by development with TMB and quenching of the reaction with 1N H2SO4 and detection at 450 nm in a plate reader. […] Therefore, without wishing to be bound by theory, this increase has implications for diseases where immune complexes contribute to pathogenesis, including numerous inflammatory ophthalmologic diseases (e.g., uveitis or retinitis), which are situations were increased rapidity of immune complexes can potentially lessen disease severity."}, "rat eye": {"test_system": "rat eye", "assay": "Intravitreal safety study, slit lamp examination with modified MacDonald-Shadduck Ocular Grading", "assay_type": "in vivo", "set-up": "key to Conjunctiva pathology score / Anterior Chamber pathology score / Iris pathology score / Cornea pathology score: 0: no pathology; 1: slight pathology; 2: moderate pathology; 3/4: severe pathology", "details": "for Anterior Chamber pathology score / Conjunctiva pathology score / Cornea pathology score / Iris pathology score: rats 1-4", "protocol": "Safety study. […] A saline control was administered to the left eye. For this procedure, animals were anesthetized with isoflurane and also received the topical anesthetic proparacaine. Additionally, animals received the topical antibiotic tobramycin after injection. Slit lamp examinations were performed at the indicated time points up to 72 hours post-injection and pathology graded using a modified MacDonald-Shadduck Ocular Grading system with the following scoring scale: 0, no pathology; 1, slight pathology; 2, moderate pathology; 3/4, severe pathology."}, "[2]": {"details": "bolus IV 400 mg/kg; four hours after infusion; male Wistar rats"}, "[3]": {"details": "1 hour after IVT injection; compared to saline"}, "free DNA": {"test_system": "free DNA", "assay": "OVA/LPS rat asthma model, free DNA in BALF (PicoGreen)", "details": "prophylactic or rescue 160 mg/kg IV; vs asthma rats Days 22-24; not back to baseline"}, "[4]": {"test_system": "human umbilical vascular endothelial cell (HUVEC)", "assay": "HUVEC 3-dimensional culture, LPS-stimulated non-VEGF mediated angiogenesis", "details": "increasing amounts of peptide; 10 ug/ml LPS; 18 hours"}, "[5]": {"details": "30 min after IVT 160 mg/ml in 5 microliters"}, "[6]": {"details": "2 hour after IVT 160 mg/ml in 5 microliters"}, "[7]": {"details": "24 hour after IVT 160 mg/ml in 5 microliters"}, "[8]": {"details": "48 hour after IVT 160 mg/ml in 5 microliters"}, "[9]": {"details": "72 hour after IVT 160 mg/ml in 5 microliters"}, "[10]": {"details": "Pre-IVT (baseline), eye assigned to RLS-0071"}}}
{"smiles": "CC[C@H](C)[C@H](N)C(=O)N[C@@H](C)C(=O)N[C@@H](CC(C)C)C(=O)N[C@H](C(=O)N[C@@H](CC(C)C)C(=O)N[C@@H](CCC(=O)O)C(=O)N1CCC[C@H]1C(=O)N[C@H](C(=O)N[C@@H](CS)C(=O)N[C@@H](CS)C(=O)N[C@@H](CCC(N)=O)C(=O)N[C@@H](CCC(=O)O)C(=O)N[C@@H](CCCNC(=N)N)C(=O)N[C@@H](C)C(=O)N[C@@H](C)C(=O)NCCOCCOCCOCCOCCOCCOCCOCCOCCOCCOCCOCCOCCOCCOCCOCCOCCOCCOCCOCCOCCOCCOCCOCCOCCC(=O)O)[C@@H](C)CC)[C@@H](C)CC", "note": "[RLS-0071]", "values": [{"measurement": "binding to MAC-1", "setting": "MAC-1/CR3", "value": "but not MAC-1"}, {"measurement": "binding to ICAM-1", "setting": "ICAM-1/CD54; 1% gelatin/PBS buffer", "value": "bound endothelial receptor ICAM-1"}, {"measurement": "binding to ICAM-1", "setting": "ICAM-1/CD54; in human plasma", "value": "bound dose-dependently"}, {"measurement": "binding to MPO", "setting": "MPO (myeloperoxidase)", "value": "bound PA-dPEG24 in a dose-dependent manner"}, {"measurement": "Adjusted Peak Distribution (ROI %) in Rat Plasma", "setting": "[1]; Group 3 (20 mg/kg IV)", "value": "about 12%"}, {"measurement": "Adjusted Peak Distribution (ROI %) in Rat Plasma", "setting": "[1]; Group 4 (200 mg/kg IV)", "value": "~16", "unit": "%"}, {"measurement": "estimated mean concentration within 0-24 hr in AUC0-24 hr pooled plasma", "setting": "[1]; high dose group (200 mg/kg IV)", "value": 2225, "unit": "ng Eq/g"}, {"measurement": "estimated mean concentration within 0-24 hr in AUC0-24 hr pooled plasma", "setting": "[1]; low dose group (20 mg/kg IV)", "value": 187, "unit": "ng Eq/g"}, {"measurement": "amount of C1q detected on monocytes", "setting": "human monocytes", "value": "increased with increasing amounts of PA-dPEG24"}, {"measurement": "level of C1q-immune complexes bound to monocytes", "setting": "human monocytes", "value": "did not reduce the level of C1q-immune complexes"}, {"measurement": "ocular toxicity by slit lamp after intravitreal injection", "setting": "rat eye; 160 mg/kg (maximal deliverable dose) as printed, all 4 animals, up to 72 hours", "value": "No RLS-0071 related toxicity was observed"}, {"measurement": "Anterior Chamber pathology score", "setting": "rat eye; [5]", "value": 0}, {"measurement": "Conjunctiva pathology score", "setting": "rat eye; [5]", "value": 0}, {"measurement": "Cornea pathology score", "setting": "rat eye; [5]", "value": 0}, {"measurement": "Iris pathology score", "setting": "rat eye; [5]", "value": 0}, {"measurement": "Anterior Chamber pathology score", "setting": "rat eye; [6]", "value": 0}, {"measurement": "Conjunctiva pathology score", "setting": "rat eye; [6]", "value": 0}, {"measurement": "Cornea pathology score", "setting": "rat eye; [6]", "value": 0}, {"measurement": "Iris pathology score", "setting": "rat eye; [6]", "value": 0}, {"measurement": "Anterior Chamber pathology score", "setting": "rat eye; [7]", "value": 0}, {"measurement": "Conjunctiva pathology score", "setting": "rat eye; [7]", "value": 0}, {"measurement": "Cornea pathology score", "setting": "rat eye; [7]", "value": 0}, {"measurement": "Iris pathology score", "setting": "rat eye; [7]", "value": 0}, {"measurement": "Anterior Chamber pathology score", "setting": "rat eye; [8]", "value": 0}, {"measurement": "Conjunctiva pathology score", "setting": "rat eye; [8]", "value": 0}, {"measurement": "Cornea pathology score", "setting": "rat eye; [8]", "value": 0}, {"measurement": "Iris pathology score", "setting": "rat eye; [8]", "value": 0}, {"measurement": "Anterior Chamber pathology score", "setting": "rat eye; [9]", "value": 0}, {"measurement": "Conjunctiva pathology score", "setting": "rat eye; [9]", "value": 0}, {"measurement": "Cornea pathology score", "setting": "rat eye; [9]", "value": 0}, {"measurement": "Iris pathology score", "setting": "rat eye; [9]", "value": 0}, {"measurement": "Anterior Chamber pathology score", "setting": "rat eye; [10]", "value": 0}, {"measurement": "Conjunctiva pathology score", "setting": "rat eye; [10]", "value": 0}, {"measurement": "Cornea pathology score", "setting": "rat eye; [10]", "value": 0}, {"measurement": "Iris pathology score", "setting": "rat eye; [10]", "value": 0}, {"measurement": "staining for peptide in kidney tissue", "setting": "[2]", "value": "dark staining on the glomerulus and tubules"}, {"measurement": "staining for peptide in liver tissue", "setting": "[2]", "value": "discrete staining"}, {"measurement": "stability in diluted dose solution in water", "setting": "6-day storage at -20 °C freezer, M2768 detected", "value": "not stable"}, {"measurement": "stability in solutions, rat urine, and/or rat plasma", "setting": "decomposes to M2768 by dehydrogenation", "value": "not stable"}, {"measurement": "stability in rat plasma and urine", "setting": "spiked into control blank rat plasma and pre-dose urine, or decomposition during sample processing", "value": "not stable in rat plasma/urine"}, {"measurement": "DAB staining of retinal tissue", "setting": "[3]", "value": "significant DAB signal"}, {"measurement": "free DNA in the BALF", "setting": "free DNA", "value": "a decrease in free DNA was observed"}, {"measurement": "angiogenesis (sprouting and tube formation)", "setting": "[4]", "value": "dose-dependent reduction in angiogenesis"}]}
